Assay results as given in patent publication US5741798A, “2-benzyl-4-sulfonyl-4H-isoquinolin-1,3-diones and their use as antiinflammatory agents” (priority 1997, dated 1998).

Key:
[1] = tested on: Carrageenan-induced paw edema; assay: Carrageenan-Induced Paw Edema in Rats; assay type: in vivo, rat; conditions: oral, 30 mg/kg; *p < 0.05
Protocol: The antiinflammatory activities of two compounds in accordance with the invention (those of Examples 1 and 10) were determined in vivo and compared to those of the known antiinflammatory agents indomethacin and meloxicam, using the Carrageenan-Induced Paw Edema in Rats protocol described by C. A Winter et al. J. Pharmacol. Exp. Ther. 1963, 141, 369. Test compounds were administered orally.

[2] = target: T1, human recombinant COX-1 (Homo sapiens, UniProt P23219); assay: COX-1 inhibition, COS cell assay; assay type: cell-based
T1 construct: expressed in transfected cells; host or cells: Cos-A2 cells, stably transfected
Protocol: (§1) Cos-A2 cells stably transfected with human recombinant COX-1 or COX-2 are cultured in 96 well tissue culture plates with Dulbecco's Modified Eagle Medium supplemented with 10% fetal bovine serum, glutamine (2 mM), penicillin (50 U/mL), streptomycin ([…]) and geneticin (400 μg/mL). Media is removed from confluent monolayers and the cells are washed twice with Hank's buffered saline solution. Fresh HBSS is added, with or without inhibitor, and the cells are incubated for 30 minutes at 37° C. Arachidonic acid (30 μM) is then added and the cells are incubated for an additional one hour at 37° C. Individual experiments represent a mean of triplicate wells for control and inhibitor doses. Supernatents are removed and stored at -80° C. until assayed for PGE2 by EIA (Amersham).
(§2) The inhibitory activities against COX-1 and COX-2 of the compounds described in the above Synthetic Examples were determined using the two in vitro assays described above.

[3] = target: Human cyclooxygenase 1 (COX-1) (Homo sapiens, UniProt P23219); assay: COX-1 inhibition, microsomal assay; conditions: 20 min, read-out: % Inhibition of COX Enzymes in Microsomal Assays, COX-1
Protocol: (§3) Human cyclooxygenase 1 and 2 are expressed in a baculovirus expression system using High 5 insect cells. Microsomal fractions prepared from the cells are stored at -80° C. The assays are performed at room temperature in phosphate buffered saline. After incubating the COX-1 or COX-2 microsomes with hematin (2 μM), phenol (0.5 mM) and reduced glutathione (1 mM) for 5 minutes, inhibitor or DMSO vehicle is added and allowed to incubate for 20 minutes. Arachidonic acid (2 μM) is added and after 20 minutes the reaction is stopped by the addition of HCl (0.1 N HCl final concentration).
as §2

[4] = target: T2, human recombinant COX-2 (Homo sapiens, UniProt P35354); assay: COX-2 inhibition, COS cell assay; assay type: cell-based; conditions: COS cells, COX-2; read-out: Inhibition of COX Enzymes in COS Cell Assays, COX-2 IC50
T2 construct: expressed in transfected cells; host or cells: Cos-A2 cells, stably transfected
T2 sequence (P35354 18-604): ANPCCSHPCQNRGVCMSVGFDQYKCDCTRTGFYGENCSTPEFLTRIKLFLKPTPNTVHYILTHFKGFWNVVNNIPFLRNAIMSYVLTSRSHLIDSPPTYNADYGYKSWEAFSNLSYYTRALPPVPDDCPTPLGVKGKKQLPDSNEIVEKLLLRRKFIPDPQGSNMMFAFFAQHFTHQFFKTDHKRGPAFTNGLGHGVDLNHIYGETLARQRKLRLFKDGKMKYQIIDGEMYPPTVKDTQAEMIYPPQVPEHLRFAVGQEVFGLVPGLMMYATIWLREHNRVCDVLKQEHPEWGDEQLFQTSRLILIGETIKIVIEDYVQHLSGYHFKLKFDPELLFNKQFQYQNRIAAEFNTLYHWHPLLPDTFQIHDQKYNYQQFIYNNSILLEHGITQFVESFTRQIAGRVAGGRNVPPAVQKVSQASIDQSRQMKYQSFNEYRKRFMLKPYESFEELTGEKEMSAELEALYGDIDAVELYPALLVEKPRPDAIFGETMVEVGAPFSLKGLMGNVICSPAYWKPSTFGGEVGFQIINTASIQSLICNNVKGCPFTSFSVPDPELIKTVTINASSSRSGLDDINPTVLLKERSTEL
Protocol: as §1, §2

[5] = target: T3, Human cyclooxygenase 2 (COX-2) (Homo sapiens, UniProt P35354); assay: COX-2 inhibition, microsomal assay; conditions: 20 min, read-out: % Inhibition of COX Enzymes in Microsomal Assays, COX-2
T3 sequence (P35354 18-604): T2 sequence (P35354 18-604)
Protocol: as §3, §2

[6] = tested on: COX-2; conditions: in words, background; cited from earlier work
[7] = COS, read-out: Inhibition of COX Enzymes in COS Cell Assays, COX-1 % inhibition

T1 sequence (P23219 24-599): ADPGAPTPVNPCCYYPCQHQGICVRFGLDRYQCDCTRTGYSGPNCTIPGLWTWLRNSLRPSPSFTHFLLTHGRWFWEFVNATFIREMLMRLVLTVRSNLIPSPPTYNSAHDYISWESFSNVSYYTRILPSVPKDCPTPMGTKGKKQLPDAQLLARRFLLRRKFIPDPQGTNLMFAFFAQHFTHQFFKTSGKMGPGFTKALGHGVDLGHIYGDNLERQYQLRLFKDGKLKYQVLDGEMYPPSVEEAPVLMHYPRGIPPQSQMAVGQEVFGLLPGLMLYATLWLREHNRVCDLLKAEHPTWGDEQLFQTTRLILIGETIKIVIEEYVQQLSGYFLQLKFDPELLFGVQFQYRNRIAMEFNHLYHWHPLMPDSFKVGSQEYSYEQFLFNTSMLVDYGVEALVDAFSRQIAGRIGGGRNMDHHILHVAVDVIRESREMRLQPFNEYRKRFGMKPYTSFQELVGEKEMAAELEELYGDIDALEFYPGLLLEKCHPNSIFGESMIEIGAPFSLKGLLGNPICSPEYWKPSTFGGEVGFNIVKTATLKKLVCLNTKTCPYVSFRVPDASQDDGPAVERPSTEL
Human cyclooxygenase 1 (COX-1), sequence (P23219 24-599): as above

IC50 ([2]; COS cells, COX-1, read-out: Inhibition of COX Enzymes in COS Cell Assays, COX-1 IC50)	Compound	Effect of Compounds in Carrageenen Paw Edema in Rats, % Inhibition [1]	inhibition at 0.1 µg/mL [3]	inhibition at 1 µg/mL [3]	inhibition at 10 µg/mL [3]	IC50 [4]	inhibition at 0.1 µg/mL [5]	inhibition at 1 µg/mL [5]	inhibition at 10 µg/mL [5]	inhibition at 0.1 µM [2, 7]	inhibition at 1 µM [2, 7]	inhibition at 10 µM [2, 7]	selective inhibition of the COX-2 isoform [6]
1400 nM	CC(C)S(=O)(=O)C1C(=O)N(Cc2ccccc2)C(=O)c2ccc(Cl)cc21 (stereo not drawn) [Example 1, 2-Benzyl-6-chloro-4-(1-methylethyl)sulfonyl-4H-isoquinolin-1,3-dione]	42.5%	10%	34%	57%								
	CC(C)S(=O)(=O)C1C(=O)N(Cc2ccc(F)c(F)c2)C(=O)c2ccc(Cl)cc21 (stereo not drawn) [Example 10]	38.6%	13%	40%	96%	100 nM	-3%	100%	100%	20%	55%	88%	
	Cc1cnc(NC(=O)C2=C(O)c3ccccc3S(=O)(=O)N2C)s1 [Meloxicam, reference compound]	56%											more or less selectively inhibit the COX-2 isoform
